Columns and labels:
Assay type in all cases: functional
[1] = Cytotoxicity against mouse TLT cells assessed as cytoplasmic LDH release at 50 ug/ml after 24 hrs
[2] = Cytotoxicity against mouse TLT cells assessed as cytoplasmic LDH release at 50 ug/ml after 24 hrs in presence of 2 mM vitamin C
[3] = Cytotoxicity against mouse TLT cells assessed as decrease in intracellular ATP level at 1 to 50 ug/ml after 24 hrs by bioluminescence assay relative to control; design: scale not given: the % may be the effect or the level left
[4] = Cytotoxicity against mouse TLT cells assessed as decrease in intracellular ATP level at 1 to 50 ug/ml after 24 hrs by bioluminescence assay relative to control in presence of 2 mM vitamin C; design: scale not given: the % may be the effect or the level left
[5] = Cytotoxicity against mouse TLT cells assessed as decrease in intracellular reduced glutathione level at 1 to 50 ug/ml after 24 hrs by ortho-phthalaldehyde method relative to control; design: scale not given: the % may be the effect or the level left
[6] = Cytotoxicity against mouse TLT cells assessed as decrease in intracellular reduced glutathione level at 1 to 50 ug/ml after 24 hrs by ortho-phthalaldehyde method relative to control in presence of 2 mM vitamin C; design: scale not given: the % may be the effect or the level left
[7] = Induction of apoptosis in mouse TLT cells assessed as effect on caspase 3 activity at 1 ug/ml after 24 hrs by fluorometric assay
[8] = Induction of apoptosis in mouse TLT cells assessed as effect on caspase 3 activity at 1 ug/ml after 24 hrs by fluorometric assay in presence of 2 mM vitamin C
[9] = Induction of apoptosis in mouse TLT cells assessed as effect on caspase 3 activity at 50 ug/ml after 24 hrs by fluorometric assay
[10] = Induction of apoptosis in mouse TLT cells assessed as effect on caspase 3 activity at 50 ug/ml after 24 hrs by fluorometric assay in presence of 2 mM vitamin C
[11] = Induction of apoptosis in mouse TLT cells assessed as effect on caspase 3 activity at 100 ug/ml after 24 hrs by fluorometric assay
[12] = Induction of apoptosis in mouse TLT cells assessed as effect on caspase 3 activity at 100 ug/ml after 24 hrs by fluorometric assay in presence of 2 mM vitamin C
[13] = Induction of apoptosis in mouse TLT cells assessed as increase in caspase 3 activity at 50 ug/ml after 24 hrs by fluorometric assay relative to basal level in presence of 2 mM vitamin C
[14] = Induction of apoptosis in mouse TLT cells assessed as increase in caspase 3 activity at 50 ug/ml after 24 hrs by fluorometric assay relative to basal level
[15] = Cytotoxicity against mouse TLT cells assessed as cytoplasmic LDH release at 1 ug/ml after 24 hrs
[16] = Cytotoxicity against mouse TLT cells assessed as decrease in intracellular ATP level at 50 ug/ml after 24 hrs by bioluminescence assay relative to control in presence of 2 mM vitamin C; design: scale not given: the % may be the effect or the level left
[17] = Cytotoxicity against mouse TLT cells assessed as decrease in intracellular reduced glutathione level at 50 ug/ml after 24 hrs by ortho-phthalaldehyde method relative to control in presence of 2 mM vitamin C; design: scale not given: the % may be the effect or the level left

SMILES | Activity [1] | Activity [2] | Activity [3] | Activity [4] | Activity [5] | Activity [6] | Activity [7] | Activity [8] | Activity [9] | Activity [10] | Activity [11] | Activity [12] | Activity [13] | Activity [14] | Activity [15] | Activity [16] | Activity [17]
CC1(C)CCCC2(C)c3coc(C4=CC(=O)C=CC4=O)c3CCC12 (centres undefined) | 28% | 28% | 40% | 40% | 60% | 60% | 21.3 mU | 15.1 mU | 37.2 mU | 25.6 mU | 51.1 mU | 57.8 mU | 3.5 | 2.5 |  |  | 
CC1(C)CCCC2(C)c3coc(C4=C([N+](=O)[O-])C(=O)C=CC4=O)c3CCC12 (centres undefined) |  | 60% |  |  |  |  | 31.9 mU | 12.8 mU | 27.4 mU | 10.7 mU | 22.5 mU | 1 mU |  |  | 28% | 50% | 25%

Source: ChEMBL document CHEMBL1156705, “Part 1: Effect of vitamin C on the biological activity of two euryfurylbenzoquinones on TLT, a murine hepatoma cell line” (2008)
